Reference: patent US20220304286A1, “SYSTEMS AND METHODS FOR IN VIVO DUAL RECOMBINASE-MEDIATED CASSETTE EXCHANGE (dRMCE) AND DISEASE MODELS THEREOF” (CEDARS-SINAI MEDICAL CENTER, priority 2019, published 2022)
Entries after “also recorded” stand apart in the source; their conditions may differ.

Key:
MADR K27M tumor cells = test: High-throughput drug testing: live-cell imaging of proliferation, MADR K27M tumor cell lines; assay type: cell-based, mouse; settings: imaged for 92 hours, Incucyte phase contrast, 4 biological replicates
Procedure: (§1) In high-throughput drug testing experiments, 10.000 cell from the cell lines generated from tumor dissociation and non-tumor control cells were plated in 96 well plates. 24 hours after the seeding appropriate concentration of each drug (1 μM for Vacquinol-1(Sigma-Aldrich, SML1187) and 0.5 μM for AKT 1/2 kinase inhibitor (Sigma- Aldrich, A6730)) was added to the media and cells were imaged for 92 hours in phase contrast using Incucyte S3 System. Images were collected every 2 hours using Incucyte S3 Software. Cell proliferation images analysis was done with Incucyte S3 software and normalized results presented and analyzed with Graphpad Prism 7.
(§2) Mice were euthanized in CO2 chamber and brains were collected in PBS. Immediately, EGFP+ tissue was micro-dissected under a Revolve Hybrid Microscope (Echo Labs, San Diego, Calif.). If allowed by the size of the tumor, some remains of the brain with residual tumor tissue was fixed in 4% PFA for tissue analysis. Microdissected tissue was mechanically dissociated into <1 mm pieces and further digested with Collagenase IV (Worthington Biochemical, Lakewood, N.J.), and DNAse I (Worthington Biochemical, Lakewood, N.J.). The resultant single cell suspension was filtered through […] cell strainer (Stellar Scientific, Baltimore, Md.) and erythrocytes were lysed with ACK lysis buffer (Thermo Fisher Scientific, Waltham, Mass.). […]

K27M tumor cells = settings: earlier finding, no details given; cited from earlier work
[1] = test system: NPCs (tdTomato+ non-tumor control cells); test: High-throughput drug testing: live-cell imaging of proliferation, non-tumor control NPCs; assay type: cell-based, mouse; settings: imaged for 92 hours, paired toxicity screening
Procedure: as §1
as §2, with “Mass.). Single cell suspensions were split into 3 parts: First, for scRNAseq or sc-ATACseq experiments, GFP+ cells from single cell samples were FACS sorted (into 1.5 ml tubes for 10× Chromium). A secondary fraction was used for in vitro cell line establishment.” for “Mass.).”

[2] = AKT 1/2 kinase inhibitor 0.5 μM

Compound | cell proliferation of K27M tumor population (MADR K27M tumor cells; [2]) | toxicity to K27M tumor cells (previously identified) (K27M tumor cells) | cell proliferation of NPCs [1, 2] | cell proliferation of NPCs ([1]; AKT 1/2 kinase inhibitor 0.5 μM, listed as Akt1/2 inhibitor) | cell proliferation of K27M tumor population (MADR K27M tumor cells; Vacquinol-1 1 μM) | cell proliferation of NPCs ([1]; Vacquinol-1 1 μM)
O=c1[nH]c2ccccc2n1C1CCN(Cc2ccc(-c3nc4cc5nc[nH]c5cc4nc3-c3ccccc3)cc2)CC1 [Akt1/2 kinase inhibitor] | decreases proliferation | selectively toxic to K27M tumor cells | decreases proliferation | similarly inhibited NPC proliferation |  | 
OC(c1cc(-c2ccc(Cl)cc2)nc2ccccc12)C1CCCCN1 (stereo not shown) [Vacquinol-1] |  | selectively toxic to K27M tumor cells |  |  | inhibits K27M growth; also recorded: decreases proliferation preferentially | does not alter NPC culture growth
